The numbers were not newly measured in patent publication US20220273015A1, “FORMULATIONS AND USES THEREOF” (priority 2021, published 2022), which cites them from elsewhere.

The conditions of series [1]: for Stability: best preserved in an alcoholic tincture; for Properties: properties in words from a review of the primary literature (PMIDs in the cell), wrapped cell lines.
The subject of series [2] is atypical/precancerous stem cells. Particulars: used separately or together in one study.
The mark [3] stands for this setting: <1 ug daily, postoperative control of analgesia.

“Also recorded” adds a separate entry of the source.

For `CCc1ccc(C)c2ccc(C)c-2c1` [chamazulene], the Stability result in series [1] was “are very unstable and are best preserved in an”.

Turning to `CC(C)=CCC/C(C)=C/CC/C(C)=C/CC/C(C)=C/CC/C(C)=C/CC/C(C)=C/CC/C(C)=C/CC1=C(C)C(=O)c2ccccc2C1=O` [MK7], in series [1] (by facilitating signaling cascades which improve translocation of calcium from the serum into the bony matrix, PMID 32244313), the bone mineral density entry is recorded as “other vitamin K homologs. MK7 increases”.

For the molecule `CCCCCCCCCCCCCCCC(=O)O` [Palmitic Acid], the “Wound healing / skin repair and skin health” value in series [1] (qualitative, PMID-cited) was “Palmitic Acid is a saturated fat essential to skin”.

On to `CCCCC/C=C\C/C=C\CCCCCCCC(=O)O` [linoleic acid], for which the Safety / toxicity entry in series [1] (qualitative) is given as “in high quantities is associated with higher rates”. Moreover, in series [1] (qualitative, PMID-cited), the “Wound healing / skin repair and skin health” value is reported as “polyunsaturated fat that improves skin barrier”.

Consider `O=C1CC[C@@]2(O)[C@H]3Cc4ccc(O)c5c4[C@@]2(CCN3CC2CC2)[C@H]1O5` [VLDN], for which the “tolerability of opioid-weaning methadone taper” value in series [1] (<1 ug X <0.5 mg daily) is on record as “VLDN: boosting tolerability of opioid-weaning”.

As for `O=C(O)c1cc(O)c(O)c(O)c1` [Gallic Acid], in series [1] (PMID 30657034), the “antioxidant, anti-inflammatory, anti-microbial, anti-cancer activities” value is given as “Powerful antioxidant, anti-inflammatory, anti-”. Besides, in series [1] (PMID 32390309, PMID 30617549), the “preventing and treating acne” value was 23501608). Useful in preventing and treating. In addition, in series [1] (in vitro and in vivo, PMID 23501608), the “inhibitory properties against cancer” value is reported as “Plant polyphenol with strong inhibitory”. In addition, the “NFKB, Akt, COX, ribonucleotide reductase and GSH pathways” value in series [1] (mechanism of anti-cancer effect, PMID 23501608) is on record as “(PMID 23501608) by inhibition of NFKB, Akt,”. In addition, in series [1] (to prevent carcinogenesis, PMID 23501608), the ATM kinase signaling entry is “pathways; and also activates ATM kinase”.

As to `COc1cc(CCC(C)=O)ccc1O` [zingerone], the diuretic effect entry in series [1] (observed only at a dose of 30 mg/kg in normal mice, PMID 20606379) is recorded as “Oil, zingerone exhibited a mild diuretic effect”.

Regarding `C=C1/C(=C\C=C2/CCC[C@]3(C)[C@@H]([C@H](C)/C=C/[C@@H](O)C4CC4)CC[C@@H]23)C[C@@H](O)C[C@@H]1O` [calcipotriene], in series [1] (topical application, PMID 10753146), the chronic plaque psoriasis entry is “topical application of calcipotriene improves”.

`O=c1c(O)c(-c2ccc(O)c(O)c2)oc2cc(O)cc(O)c12` [Quercetin]: in series [1] (qualitative, PMID-cited), the “Anti-cancer / cytotoxic / antitumor properties” value was “antitumor effects PMID 31880372) the ability”.

As for `C=C(C)[C@H]1CC=C(C)CC1` [D-limonene], in series [1] (qualitative, PMID-cited), the “Antimicrobial, antiparasitic, insecticidal / insect repellent properties” value is on record as “a result. D-limonene has antimicrobial”. For the same molecule, the “Effects in animal models” value in series [1] (qualitative, rodent/animal models, PMID-cited) was “more capable. D-limonene has a mild diuretic”.

On to `CC(C)=CCC[C@](C)(O)C1CC=C(C)CC1` (stereo partly drawn) [bisabolol], for which, in series [1], the Stability result was “are very unstable and are best preserved in an”.

For Vitamin E, the Properties entry in series [1] is on record as “skin barrier stabilizing properties (PMID”.

As for `O=c1cc(-c2ccc(O)cc2)oc2cc(O)cc(O)c12` [Apigenin], the “Anti-cancer / cytotoxic / antitumor properties” value in series [1] (qualitative, PMID-cited) was “exerts an antitumor effect in preclinical models”.

For the molecule `CCCCCCCC/C=C\CCCCCCCC(=O)O` [Oleic acid], the “lipophilic penetration of skin cells” value in series [1] ("may enhance", PMID 21871866, PMID 2367329) is listed as “enhance lipophilic penetration of skin cells”. In addition, in series [1] (PMID 2235880), the “effect on the cell membrane allowing for drug permeability” value is 21871866) and creates a temporary disruption. The “targeted drug delivery across the skin” value in series [1] (PMID 2514720) is “facilitate targeted drug delivery across the skin”.

As to `O=C(O)CCCCC1CCSS1` (stereo not drawn) [Alpha-Lipoic Acid], the “blood flow to damaged nerves, nerve conduction velocity, and other measures of nerve function” value in series [1] (PMID 25381809) is on record as “microcirculation (PMID 160261130), improves”. In series [1] (PMID 160261130), the diabetic polyneuropathy result is listed as “improving”; the microcirculation result is on record as “oxidative stress, aging, cancer, improves”; the “oxidative stress, aging, cancer” value is “reducing”. Also, the “antioxidant protection of lipids” value in series [1] (such as those found in the myelin sheath of neurons) is on record as “Antioxidant which specifically protects lipids”.

Turning to `O=C1CC[C@@]2(O)[C@H]3Cc4ccc(O)c5c4[C@@]2(CCN3CC2CC2)[C@H]1O5` [ULDN], in series [1] (setting [3]), the “need for total amount of opioids following surgery” value is given as “(reduces the need for total amount of opioids”; the “side-effects of opioid-related treatment” value was “following surgery and ameliorating side-effects”.

As to `CCCCCCCCCCCCCCCCCC(=O)O` [Stearic acid], in series [1] (qualitative, PMID-cited), the “Metabolic and cardiovascular effects (lipids, blood pressure, glucose, clotting)” value was 10945745) and can increase the “good”; the “Wound healing / skin repair and skin health” value is reported as “a saturated fatty acid beneficial to skin; also recorded: important in wound healing of burns (PMID”.

As to `COc1cc(/C=C/C(=O)CC(=O)/C=C/c2ccc(O)c(OC)c2)ccc1O` [curcumin], the “number of atypical/precancerous stem cells” value in series [2] is listed as “reduced”.

As for `CCCCCCCC/C=C\CCCCCCCC(=O)O` [Oleic acid (OA)], the Safety / toxicity entry in series [1] (qualitative) is “lead to heart failure (PMID 28391879) though”. Moreover, the “Skin penetration / delivery of ingredients across skin and membranes” value in series [1] (qualitative, PMID-cited) was “Oleic acid (OA) enhances lipophilic penetration”.

On to `CCCCC/C=C\C/C=C\CCCCCCCC(=O)O` [Linoleic acid], for which the “Wound healing / skin repair and skin health” value in series [1] (qualitative, PMID-cited) is listed as “shown to lighten UV-induced”.

Regarding `CC(=O)N[C@@H](CS)C(=O)O` [N-Acetyl Cysteine (NAC)], the Properties entry in series [1] is “completely blocks Reactive Oxygen Species”.
